These molecules were tested against T1, Thermolysin (Bacillus thermoproteolyticus, UniProt P00800) (assay: Inhibitory activity against thermolysin).
T1 sequence (P00800 whole entry): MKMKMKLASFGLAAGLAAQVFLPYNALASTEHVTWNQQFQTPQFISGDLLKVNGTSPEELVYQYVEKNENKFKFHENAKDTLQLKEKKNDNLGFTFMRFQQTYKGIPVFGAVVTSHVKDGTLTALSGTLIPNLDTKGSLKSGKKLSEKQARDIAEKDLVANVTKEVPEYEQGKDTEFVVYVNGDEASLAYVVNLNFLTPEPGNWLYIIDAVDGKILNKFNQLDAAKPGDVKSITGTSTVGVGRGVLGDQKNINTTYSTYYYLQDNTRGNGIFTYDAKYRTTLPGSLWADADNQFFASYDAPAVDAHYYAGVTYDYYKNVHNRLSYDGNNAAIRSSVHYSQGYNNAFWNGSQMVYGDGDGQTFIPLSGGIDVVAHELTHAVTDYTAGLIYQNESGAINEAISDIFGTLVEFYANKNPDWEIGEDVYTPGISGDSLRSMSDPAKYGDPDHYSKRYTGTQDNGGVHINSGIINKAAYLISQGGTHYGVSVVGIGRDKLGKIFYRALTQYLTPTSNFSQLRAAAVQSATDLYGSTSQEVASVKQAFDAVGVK

Going from `CNC(=O)[C@@H](Cc1ccccc1)CN(O)C=O` to `CNC(=O)[C@H](Cc1ccccc1)CN(O)C=O`, the Ki rises from 1.66 µM to 68.2 µM (41-fold).

Going from `CNC(=O)[C@@H](Cc1ccccc1)CN(O)C(C)=O` to `CCC(=O)N(O)C[C@H](Cc1ccccc1)C(=O)NC`, the Ki rises from 3950 µM to 7500 µM (1.9-fold). The first binds more tightly here.

Going from `COC(=O)[C@@H](CC(C)C)N(O)C=O` to `COC(=O)[C@@H](CC(C)C)CN(O)C=O`, the Ki falls from 44 µM to 22.5 µM (2-fold). The second binds more tightly here.

What follows are molecules tested against T1, Thermolysin (assay: Inhibitory activity against thermolysin; No inhibitory activity was observed up to concentration of 20 mM).

With `CCC(=O)N(O)C[C@@H](Cc1ccccc1)C(=O)NC` the Ki was “No inhibition”.
For `CNC(=O)[C@H](Cc1ccccc1)CN(O)C(C)=O`, the Ki was “No inhibition”.

From ChEMBL document CHEMBL1130707, “Inhibition stereochemistry of hydroxamate inhibitors for thermolysin” (Bioorg Med Chem Lett, 1998)
